{"source": "patent US10517889B2", "about": "“Modulators of SMAD7 expression” (Ionis Pharmaceuticals, Inc., priority 2017, dated 2019)", "tested_on": "human SMAD7 mRNA", "experiment": "Antisense inhibition of human SMAD7 mRNA expression in Hep3B cells by 3-10-3 cEt gapmers, 10,000 nM, electroporation (Example 2)", "type": "cell-based", "conditions": "approximately 24 hours", "procedure,_shortened": "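Hep3B, 20,000 cells/well; electroporation, 10,000 nM ASO; ~24 h. Readout: SMAD7 mRNA by qRT-PCR (RTS5062), RIBOGREEN-normalised; % inhibition vs untreated.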", "key": {"[1]": {"conditions": "Hep3B cells, 10,000 nM antisense oligonucleotide, electroporation, RT-PCR primer probe set RTS5062, relative to untreated control cells"}, "[2]": {"conditions": "Hep3B cells, electroporation with 10,000 nM antisense oligonucleotide, SMAD7 mRNA by RT-PCR (RTS5062), relative to untreated control cells"}}, "note": "Strand notation (5' to 3'): a small letter for the sugar, then the base; units joined by * are phosphorothioate-linked, units joined directly phosphodiester-linked; [ ] holds rarer units or linkages, { } end groups; capitals alone tell only the bases. k = constrained ethyl (cEt); [5mC] = 5-methylcytosine; d = 2'-deoxy (DNA)", "data": [{"substance": "799915 (antisense kG*k[5mC]*kT*dG*dA*d[5mC]*dG*d[5mC]*dG*dG*d[5mC]*dT*dT*k[5mC]*k[5mC]*kT) [compound 799915]", "values": [{"measurement": "% Inhibition", "setting": "[1]", "result": 52, "unit": "%"}]}, {"substance": "799916 (antisense k[5mC]*kA*k[5mC]*dA*dA*dA*dT*d[5mC]*dA*dA*dA*dA*dG*k[5mC]*kT*k[5mC]) [compound 799916]", "values": [{"measurement": "% Inhibition", "setting": "[1]", "result": 47, "unit": "%"}]}, {"substance": "799917 (antisense kT*kG*kG*dA*dG*dA*dA*dT*dG*dT*dA*dA*dT*kT*kG*kA) [compound 799917]", "values": [{"measurement": "% Inhibition", "setting": "[1]", "result": 17, "unit": "%"}]}, {"substance": "799918 (antisense k[5mC]*kA*kT*dT*dT*dA*dT*d[5mC]*dT*d[5mC]*dG*d[5mC]*d[5mC]*kA*kT*kG) [compound 799918]", "values": [{"measurement": "% Inhibition", "setting": "[1]", "result": 16, "unit": "%"}]}, {"substance": "799919 (antisense kT*k[5mC]*k[5mC]*dT*dA*dA*dG*dA*dG*d[5mC]*dA*dT*dT*kT*kA*kT) [compound 799919]", "values": [{"measurement": "% Inhibition", "setting": "[1]", "result": 0, "unit": "%"}]}, {"substance": "799920 (antisense kG*kA*kT*dG*dA*dA*dT*dG*d[5mC]*dT*d[5mC]*d[5mC]*dT*kA*kA*kG) [compound 799920]", "values": [{"measurement": "% Inhibition", "setting": "[2]", "result": 0, "unit": "%"}]}, {"substance": "799922 (antisense kA*k[5mC]*kA*d[5mC]*dT*dA*dA*dT*dT*dA*dG*dT*dG*kA*k[5mC]*kT) [compound 799922]", "values": [{"measurement": "% Inhibition", "setting": "[2]", "result": 15, "unit": "%"}]}, {"substance": "799923 (antisense kG*k[5mC]*k[5mC]*dT*dA*d[5mC]*dA*dT*dA*dT*dT*dT*d[5mC]*kG*k[5mC]*kA) [compound 799923]", "values": [{"measurement": "% Inhibition", "setting": "[2]", "result": 15, "unit": "%"}]}, {"substance": "799924 (antisense k[5mC]*kA*kA*dG*d[5mC]*d[5mC]*dT*dA*d[5mC]*dA*dT*dA*dT*kT*kT*k[5mC]) [compound 799924]", "values": [{"measurement": "% Inhibition", "setting": "[2]", "result": 22, "unit": "%"}]}, {"substance": "799925 (antisense k[5mC]*k[5mC]*kA*dA*dG*d[5mC]*d[5mC]*dT*dA*d[5mC]*dA*dT*dA*kT*kT*kT) [compound 799925]", "values": [{"measurement": "% Inhibition", "setting": "[2]", "result": 10, "unit": "%"}]}, {"substance": "799926 (antisense k[5mC]*k[5mC]*k[5mC]*dA*dA*dG*d[5mC]*d[5mC]*dT*dA*d[5mC]*dA*dT*kA*kT*kT) [compound 799926]", "values": [{"measurement": "% Inhibition", "setting": "[2]", "result": 17, "unit": "%"}]}, {"substance": "799927 (antisense kT*k[5mC]*k[5mC]*d[5mC]*dA*dA*dG*d[5mC]*d[5mC]*dT*dA*d[5mC]*dA*kT*kA*kT) [compound 799927]", "values": [{"measurement": "% Inhibition", "setting": "[2]", "result": 0, "unit": "%"}]}, {"substance": "799928 (antisense k[5mC]*kT*k[5mC]*d[5mC]*d[5mC]*dA*dA*dG*d[5mC]*d[5mC]*dT*dA*d[5mC]*kA*kT*kA) [compound 799928]", "values": [{"measurement": "% Inhibition", "setting": "[2]", "result": 7, "unit": "%"}]}, {"substance": "799929 (antisense kT*kG*k[5mC]*d[5mC]*d[5mC]*dA*dG*dG*d[5mC]*dT*dT*dG*dG*kT*kT*k[5mC]) [compound 799929]", "values": [{"measurement": "% Inhibition", "setting": "[2]", "result": 9, "unit": "%"}]}, {"substance": "799930 (antisense kT*k[5mC]*kT*dT*dT*dT*dA*dT*d[5mC]*dA*d[5mC]*dT*dG*kT*k[5mC]*kA) [compound 799930]", "values": [{"measurement": "% Inhibition", "setting": "[1]", "result": 8, "unit": "%"}]}, {"substance": "799932 (antisense kT*k[5mC]*kA*dA*dG*dA*dG*dA*d[5mC]*dG*dG*dT*dG*kA*kG*k[5mC]) [compound 799932]", "values": [{"measurement": "% Inhibition", "setting": "[1]", "result": 0, "unit": "%"}]}, {"substance": "799933 (antisense kT*kA*k[5mC]*dT*dA*dT*dT*d[5mC]*dA*dT*d[5mC]*dA*d[5mC]*k[5mC]*k[5mC]*kT) [compound 799933]", "values": [{"measurement": "% Inhibition", "setting": "[1]", "result": 22, "unit": "%"}]}, {"substance": "799934 (antisense kA*k[5mC]*kT*dT*dT*dT*dT*dA*d[5mC]*dT*d[5mC]*dT*dG*kT*k[5mC]*kT) [compound 799934]", "values": [{"measurement": "% Inhibition", "setting": "[1]", "result": 61, "unit": "%"}]}, {"substance": "799935 (antisense kA*kG*kA*dA*dA*dT*dG*dA*d[5mC]*dT*dT*dT*dT*kT*kA*k[5mC]) [compound 799935]", "values": [{"measurement": "% Inhibition", "setting": "[1]", "result": 42, "unit": "%"}]}, {"substance": "799936 (antisense k[5mC]*kT*kT*dT*dA*dA*dT*dT*dT*d[5mC]*dA*dG*dA*kG*kT*k[5mC]) [compound 799936]", "values": [{"measurement": "% Inhibition", "setting": "[1]", "result": 44, "unit": "%"}]}, {"substance": "799937 (antisense kT*k[5mC]*kT*dT*dT*dA*dA*dT*dT*dT*d[5mC]*dA*dG*kA*kG*kT) [compound 799937]", "values": [{"measurement": "% Inhibition", "setting": "[1]", "result": 24, "unit": "%"}]}, {"substance": "799938 (antisense k[5mC]*kT*k[5mC]*dT*dA*dA*dA*d[5mC]*d[5mC]*dA*dA*d[5mC]*dT*kT*kT*kT) [compound 799938]", "values": [{"measurement": "% Inhibition", "setting": "[1]", "result": 17, "unit": "%"}]}]}
